Among the data in ChEMBL document CHEMBL1131608, “Structure-activity relationships and molecular modeling of 3, 5-diacyl-2,4-dialkylpyridine derivatives as selective A3 adenosine receptor antagonists” (J Med Chem, 1998) are Ki values, retold here.

A value given as a limit tells only on which side of the number the result lay.

Assay [1] concerns the target T1, Adenosine receptor A2a (Rattus norvegicus, UniProt P30543). The assay can be described thus: Binding affinity for adenosine A2A receptor as displacement of [3H]-CGS- 21680 from rat striatal membranes. The assay is classed as cell membranes, Membrane. A general note: Displacement assays read how much labelled ligand stays bound in the presence of the test substance.

In assay [2] the target is T2, Adenosine receptor A1 (Rattus norvegicus, UniProt P25099).
T2 sequence (P25099 whole entry): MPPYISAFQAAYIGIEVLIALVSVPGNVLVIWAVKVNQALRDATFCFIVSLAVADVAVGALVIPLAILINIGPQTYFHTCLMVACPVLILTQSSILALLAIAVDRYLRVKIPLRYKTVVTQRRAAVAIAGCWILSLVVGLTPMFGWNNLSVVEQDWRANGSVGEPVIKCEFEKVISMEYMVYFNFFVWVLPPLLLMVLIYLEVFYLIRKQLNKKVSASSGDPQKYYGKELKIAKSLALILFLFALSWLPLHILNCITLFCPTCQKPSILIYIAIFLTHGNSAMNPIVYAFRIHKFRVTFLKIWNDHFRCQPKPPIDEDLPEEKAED
The assay can be described thus: Binding affinity for adenosine A1 receptor as displacement of [3H]R-PIA from rat brain membranes. The assay is classed as cell membranes, Membrane.

Assay [3] deals with T1, Adenosine receptor A2a.
For assay [4], the target named is T2, Adenosine receptor A1. Kind of assay: Binding affinity for adenosine A1 receptor as displacement of [3H]R-PIA from rat brain membranes at 10e-4 M. The assay is classed as cell membranes, Membrane.

T1 sequence (P30543 whole entry): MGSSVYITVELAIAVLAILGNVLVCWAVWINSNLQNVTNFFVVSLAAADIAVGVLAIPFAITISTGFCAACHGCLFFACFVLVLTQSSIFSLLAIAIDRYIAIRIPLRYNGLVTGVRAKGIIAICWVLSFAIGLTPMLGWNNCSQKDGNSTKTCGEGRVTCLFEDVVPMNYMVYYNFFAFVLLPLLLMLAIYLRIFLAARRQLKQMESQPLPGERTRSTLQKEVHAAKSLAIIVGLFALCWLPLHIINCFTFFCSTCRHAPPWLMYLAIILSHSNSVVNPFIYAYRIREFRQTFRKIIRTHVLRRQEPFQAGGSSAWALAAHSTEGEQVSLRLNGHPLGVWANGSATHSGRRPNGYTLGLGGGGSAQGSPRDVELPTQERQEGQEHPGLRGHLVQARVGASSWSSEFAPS

`CCCO/C(O)=C1\C(C)=NC(c2ccccc2)=C(C(=O)OCC)C1C` (centres undefined): the Ki (commonly the equilibrium dissociation constant of an inhibitor or competing ligand from its target) is 28.9 µM at Adenosine receptor A2a [1] and 17.4 µM at Adenosine receptor A1 [2].
With `CCO/C(O)=C1\C(C)=NC(c2ccccc2)=C(C(=O)OCc2ccc([N+](=O)[O-])cc2)C1C#Cc1ccccc1` (centres undefined), the Ki on Adenosine receptor A2a [3] and at Adenosine receptor A1 [4] was above 100 µM in each case.
